Data from the supplement of paper PMC11451515.

Assays:
Experiment in all cases: AUC of viability dose-response curve (% viability x log10 dose units); higher = less sensitive
Details in all cases: 48 h
NOMO1 = test system: NOMO1
Outline: (§1)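 Library compounds in DMSO were applied for 48 h at 37°C at 11 threefold doses (47 μM to 0.79 nM) to medium-adapted leukemia cells in 1536-well plates holding 500 or 1000 cells/well. Luminescence from CellTiter-Glo One was normalised plate by plate against DMSO and cell-free wells. Area under the curve came from trapezoidal integration of a log-logistic fit, after scaling curves that rose above full viability and discarding those that failed quality control. The fit had four parameters and used log10 doses.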

SEM cells = test system: SEM cells
Outline: as §1

P12-Ichikawa = test system: P12-Ichikawa
Outline: as §1

[1] = RPMI 5 mM glucose + 10% dialyzed FBS

Row | Structure (SMILES) | AUC of viability dose-response curve (NOMO1; HPLM + 10% dialyzed FBS) | AUC of viability dose-response curve (NOMO1; RPMI 5 mM glucose + 10% FBS) | AUC of viability dose-response curve (NOMO1; [1]) | AUC of viability dose-response curve (SEM cells; HPLM + 10% dialyzed FBS) | AUC of viability dose-response curve (SEM cells; RPMI 5 mM glucose + 10% FBS) | AUC of viability dose-response curve (SEM cells; [1]) | AUC of viability dose-response curve (P12-Ichikawa; HPLM + 10% dialyzed FBS) | AUC of viability dose-response curve (P12-Ichikawa; RPMI 5 mM glucose + 10% FBS) | AUC of viability dose-response curve (P12-Ichikawa; [1])
1 | Cc1onc(-c2ccccc2Cl)c1C(=O)N[C@@H]1C(=O)N2[C@@H]1SC(C)(C)[C@@H]2C(=O)[O-] | 455 | 437 | 424 | 402 | 435 | 464 | 469 | 451 | 456
2 | NC1=C(Cl)C(=CC=N1)OC2=C(F)C=C(NC(=O)\C3=C\N\C=C(C3=O)\C4=CC=C(F)C=C4)C=C2 | 441 | 452 | 453 | 312 | 287 | 247 | 451 | 448 | 447
3 | C[C@]12CC[C@@H]3c4ccc(O)cc4CC[C@H]3[C@@H]1[C@@H](O)[C@@H](O)[C@@H]2O | 461 | 471 | 468 | 465 | 448 | 461 | 468 | 457 | 450
4 | CC1=C(C)C(=O)C(C(CCCCCC(=O)O)c2ccccc2)=C(C)C1=O (stereo not given) | 334 | 293 | 318 | 301 | 301 | 303 | 387 | 414 | 362
5 | CCOC(=O)[C@@H](N)Cc1ccc(-c2cc(O[C@H](c3ccc(Cl)cc3-n3ccc(C)n3)C(F)(F)F)nc(N)n2)cc1.O=C(O)CNC(=O)c1ccccc1 | 449 | 448 | 447 | 462 | 457 | 458 | 466 | 453 | 460
6 | CC(C)(O)CC[C@@H](O)[C@](C)(O)[C@H]1CC[C@@]2(O)C/3=C/C(=O)[C@@H]4C[C@@H](O)[C@@H](O)C[C@]4(C)[C@H]3CC[C@]12C | 410 | 421 | 429 | 434 | 449 | 412 | 453 | 444 | 429
7 | C[C@]12CCC(=O)C=C1CC[C@@H]1[C@@H]2[C@@H](O)C[C@@]2(C)[C@H]1CC[C@]2(O)C(=O)CO | 474 | 456 | 458 | 466 | 427 | 443 | 447 | 425 | 412
8 | O=C(C=CC#Cc1cccc(N[S+](=O)([O-])c2ccccc2)c1)NO | 367 | 374 | 371 | 354 | 358 | 352 | 353 | 345 | 346
9 | CCCCC(=O)O[C@]1(C(=O)CO)[C@H](C)C[C@H]2[C@@H]3CCC4=CC(=O)C=C[C@]4(C)[C@@]3(F)[C@@H](O)C[C@@]21C | 467 | 474 | 472 | 378 | 362 | 350 | 372 | 315 | 292
10 | N[S+]([O-])(=O)C1=C(Cl)C=C2\N=C/N[S+]([O-])(=O)C2=C1 | 465 | 470 | 475 | 380 | 426 | 418 | 459 | 456 | 468
11 | O=C1NC(=O)/C(=C/c2ccc3nccc(-c4ccncc4)c3c2)S1 | 293 | 351 | 296 | 289 | 290 | 290 | 341 | 308 | 317
12 | COC(=O)C[C@](O)(CCCC(C)(C)O)C(=O)O[C@@H]1C(OC)=CC23CCCN2CCc2cc4c(cc2[C@H]13)OCO4 (stereo not given in full) | 458 | 466 | 466 | 462 | 452 | 471 | 458 | 458 | 458
13 | COc1ccc([S+](=O)([O-])N(C(C)=O)c2ccccc2/C=C/c2cc[n+]([O-])cc2)cc1 | 351 | 352 | 356 | 352 | 342 | 351 | 353 | 345 | 370
14 | N[S+]([O-])(=O)C1=CC=C(NC/2=C/C(=O)C3=CC=CC=C3C2=O)C=C1 | 446 | 465 | 461 | 448 | 399 | 436 | 464 | 467 | 459
15 | CNC(=O)c1ccc2cc(C3(O)CCn4cncc43)ccc2c1 (stereo not given) | 458 | 456 | 456 | 441 | 450 | 452 | 453 | 469 | 453
16 | CC(C)N[C@@H]1CCn2c(=O)[nH]c3cccc(c32)[C@H]1O | 426 | 460 | 424 | 463 | 465 | 473 | 459 | 437 | 457
17 | OC[C@@H](O)[C@@H](O)[C@H](O)[C@@H](O)CO | 465 | 472 | 445 | 401 | 472 | 452 | 452 | 453 | 449
18 | CCOC(=O)c1ccc(OC(=O)CCCCCNC(=N)N)cc1 | 410 | 444 | 437 | 436 | 385 | 418 | 354 | 413 | 407
19 | O=C(O)Cn1nnc(-c2cc(N3CCC(Oc4cc(F)ccc4Br)CC3)no2)n1 | 357 | 340 | 361 | 422 | 464 | 459 | 413 | 415 | 428
20 | O=C(O)C1(Cc2cccc(Nc3nccs3)n2)CCC(Oc2cccc(Cl)c2F)CC1 (stereo not given) | 381 | 382 | 386 | 370 | 369 | 368 | 356 | 373 | 381
21 | CC(C)OC(=O)C(C(=O)OC(C)C)=C1S\C=C/S1 | 425 | 435 | 437 | 458 | 446 | 438 | 443 | 433 | 424
22 | Nc1ncnc2c1ncn2[C@@H]1O[C@@H](CO)[C@H](O)[C@@H]1O | 454 | 467 | 441 | 467 | 466 | 449 | 464 | 477 | 472
23 | COc1ccc([C@@H]2CC(=O)c3c(O)cc(O[C@@H]4O[C@H](CO[C@@H]5O[C@@H](C)[C@H](O)[C@@H](O)[C@H]5O)[C@@H](O)[C@H](O)[C@H]4O)cc3O2)cc1O | 477 | 457 | 468 | 465 | 469 | 469 | 467 | 468 | 473

Row | Structure (SMILES) | AUC of viability dose-response curve (NOMO1; HPLM + 10% dialyzed FBS) | AUC of viability dose-response curve (NOMO1; RPMI 5 mM glucose + 10% FBS) | AUC of viability dose-response curve (NOMO1; [1]) | AUC of viability dose-response curve (SEM cells; HPLM + 10% dialyzed FBS) | AUC of viability dose-response curve (SEM cells; RPMI 5 mM glucose + 10% FBS) | AUC of viability dose-response curve (SEM cells; [1]) | AUC of viability dose-response curve (P12-Ichikawa; HPLM + 10% dialyzed FBS) | AUC of viability dose-response curve (P12-Ichikawa; RPMI 5 mM glucose + 10% FBS) | AUC of viability dose-response curve (P12-Ichikawa; [1])
24 | CCN(CC)CCCCNc1ncc2cc(-c3cc(OC)cc(OC)c3)c(NC(=O)NC(C)(C)C)nc2n1 | 388 | 459 | 444 | 400 | 393 | 391 | 449 | 406 | 404
25 | COC\1=C(/OC)C(=O)\C(=C(C)/C1=O)CCCCCCCCCCO | 461 | 464 | 468 | 460 | 471 | 456 | 471 | 456 | 459
26 | CNCCCC12CCC(c3ccccc31)c1ccccc12 | 429 | 426 | 411 | 453 | 443 | 469 | 442 | 439 | 428
27 | CC[S+](=O)([O-])c1cccc(-c2cc(C(=O)NC3CCN(C)CC3)c(C)c3[nH]c4ncc(C)cc4c23)c1 | 354 | 385 | 359 | 312 | 285 | 297 | 298 | 290 | 320
28 | C[C@]12CC[C@H]3[C@@H](CC[C@H]4NC(=O)\C=C/[C@]34C)[C@@H]1CC[C@@H]2C(=O)NC5=CC(=CC=C5C(F)(F)F)C(F)(F)F | 435 | 440 | 461 | 432 | 456 | 442 | 456 | 455 | 452
29 | CCC[S+]([O-])c1ccc2[nH]c(NC(=O)OC)nc2c1 (stereo not given) | 429 | 420 | 384 | 409 | 399 | 411 | 409 | 393 | 405
30 | O=c1[nH]c(=O)n([C@H]2C[C@H](O)[C@@H](CO)O2)cc1/C=C/Br | 425 | 456 | 454 | 436 | 460 | 469 | 357 | 472 | 477
31 | CCOC(=O)N1CCN(/[N+]([O-])=N/Oc2ccc([N+](=O)[O-])cc2C#N)CC1 | 390 | 383 | 382 | 331 | 327 | 331 | 328 | 324 | 328
32 | CN[C@H]1CCC2=CC(=C(OC)C(=C2C/3=C/C=C(OC)\C(=O)/C=C13)OC)OC | 205 | 174 | 206 | 159 | 144 | 148 | 151 | 147 | 158
33 | c1ccc2[nH]c(-c3cscn3)nc2c1 | 452 | 474 | 474 | 439 | 419 | 445 | 446 | 470 | 461
34 | OC[C@H]1O[C@H]([C@H](O)[C@@H]1O)N2\C=C/C(=O)NC2=O | 448 | 429 | 455 | 463 | 447 | 450 | 473 | 456 | 466
35 | ClC1=CC=C(C=C1)C(C#N)C2=C(Cl)C=C(C=C2Cl)N3\N=C/C(=O)NC3=O (stereo not given) | 453 | 458 | 455 | 428 | 415 | 451 | 460 | 454 | 459
36 | C[C@H](NC(=O)c1sccc1OCc1ccc(Cl)cc1)c1ccccc1 | 382 | 388 | 394 | 408 | 449 | 450 | 407 | 398 | 407
37 | NNCCc1ccccc1 | 433 | 450 | 467 | 444 | 466 | 468 | 465 | 464 | 470
38 | Cc1cnn(C)c1C(=O)Nc1cc(Nc2ccc3c(/C=C/c4ccccn4)n[nH]c3c2)ccc1F | 422 | 460 | 454 | 343 | 311 | 330 | 424 | 449 | 441
39 | CNCC(O)c1ccc(O)cc1 (stereo not given) | 446 | 455 | 441 | 423 | 452 | 459 | 464 | 466 | 469
40 | C[C@@H]1COCCN1c1cc(C2([S@+](C)(=N)[O-])CC2)nc(-c2ccnc3[nH]ccc23)n1 | 358 | 390 | 382 | 333 | 335 | 336 | 380 | 381 | 368
41 | CCc1ccc(CCOc2ccc(CC3SC(=O)NC3=O)cc2)nc1 (stereo not given) | 448 | 442 | 460 | 444 | 402 | 474 | 450 | 473 | 469
42 | C[C@](O)(CS(=O)(=O)c1ccc(F)cc1)C(=O)Nc1ccc(C#N)c(C(F)(F)F)c1 | 443 | 460 | 470 | 461 | 433 | 444 | 472 | 463 | 470
43 | CNC(=O)c1ccc(N2C(=S)N(c3cnc(C#N)c(C(F)(F)F)c3)C(=O)C23CCC3)cc1F | 419 | 426 | 439 | 447 | 452 | 457 | 470 | 463 | 467
44 | CC[C@]12CC[C@H]3[C@@H](CCC/4=C/C(=O)CC[C@H]34)[C@@H]1\C=C/[C@@]2(O)C#C | 461 | 451 | 450 | 446 | 465 | 464 | 473 | 473 | 470
45 | COc1cc(F)c(F)c(Nc2ccc(I)cc2F)c1N[S+](=O)([O-])C1(C[C@H](O)CO)CC1 | 449 | 455 | 457 | 465 | 443 | 461 | 450 | 461 | 456
